Series [1] can be described thus: LC-MS analysis of the N1–E4 reaction in the presence of glutathione. Type of series: physicochemical. The note with it: 50 μM N1 + 50 μM E4, 1 mM glutathione, pH 7.0, 37 °C, 2 h. The protocol: Extended Data Fig. 5 LC-MS analysis of the reaction between N1 and E4 in the presence of glutathione (1 mM). N1 (50 μM) and E4 (50 μM) were reacted at neutral pH (25 mM HEPES pH 7.0, 150 mM NaCl) and in the presence of reduced glutathione (1 mM). The reaction mixture was incubated at 37 °C for 2 h. No glutathione-adduct of E4 was identified. TEXT PRINTED IN THE PICTURE: no label printed: exact mass: 340.04 | no label printed: exact mass: 618.05

The target of another series is E. coli β-glucuronidase (Escherichia coli, UniProt P05804). The note with it: pH 6.8.
Series [2] has as its system CT26mβGUS tumours. The note with it: mouse, in vivo.
The next series concerns THP-1 cells. Briefly: Dilution limits of N1/E4 combination to activate THP-1 cells (IFN-β ELISA). The note with it: IFN-β secretion, 6 h, single component. (In an ELISA, binding on a coated surface is turned into a signal by an enzyme label.)
Series [3] in a line: Stability test in human plasma. Type of series: in vitro ADME. The note with it: 48 h, 37 °C. The protocol: Extended Data Fig. 6 Stability test of β-GlcA-N1 (1 mM) in human plasma. At the indicated time point, an 80 µL aliquot was loaded onto an Agilent Bond Elut solid phase extraction column (C18, 3 mL bed volume). The collected eluent was lyophilized, redissolved in a 50% (v/v) acetonitrile in water (0.1% v/v formic acid), and analyzed by LC-MS. TEXT PRINTED IN THE PICTURE: β-GlcA-N1: integration value: 91206 (t = 0 hr, human plasma); integration value: 84431 (t = 48 hr, 37 °C, human plasma) | no label printed: exact mass: 502.06 | no label printed: exact mass: 309.02 DOUBTS OF THE COPYIST ABOUT THIS PICTURE: The name β-GlcA-N1 is printed only at the peak in the upper chromatogram. The lower chromatogram's integration value (84431) is assigned to it as the same peak. / The two drawn structures have no printed label. Their exact masses are given with an empty substance label.

Another series deals with T1, human β-glucuronidase (Homo sapiens, UniProt P08236).
T1 construct: purchased AcroBiosystems BEB-H52H3
T1 sequence (P08236 23-651): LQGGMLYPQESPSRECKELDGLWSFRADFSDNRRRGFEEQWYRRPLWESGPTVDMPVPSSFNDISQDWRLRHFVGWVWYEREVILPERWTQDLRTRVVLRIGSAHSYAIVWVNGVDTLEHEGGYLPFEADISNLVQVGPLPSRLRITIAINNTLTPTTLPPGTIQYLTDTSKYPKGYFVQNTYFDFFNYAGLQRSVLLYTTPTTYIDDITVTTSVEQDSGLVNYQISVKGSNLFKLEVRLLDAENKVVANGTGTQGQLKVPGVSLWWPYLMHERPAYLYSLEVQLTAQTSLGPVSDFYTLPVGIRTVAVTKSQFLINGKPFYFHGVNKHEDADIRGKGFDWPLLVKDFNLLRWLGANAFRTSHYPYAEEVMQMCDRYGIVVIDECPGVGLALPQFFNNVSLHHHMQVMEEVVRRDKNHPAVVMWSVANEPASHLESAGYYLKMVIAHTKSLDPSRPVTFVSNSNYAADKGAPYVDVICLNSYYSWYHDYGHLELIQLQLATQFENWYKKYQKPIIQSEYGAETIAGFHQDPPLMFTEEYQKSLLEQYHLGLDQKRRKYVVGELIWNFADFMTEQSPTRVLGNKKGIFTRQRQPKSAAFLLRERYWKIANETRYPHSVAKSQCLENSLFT
Briefly: Michaelis–Menten kinetics of β-GlcA-N1 cleavage. Type of series: biochemical. The settings on record: for dilution-corrected deltaN1: replicates 1 and 2. How it is done: Human β-glucuronidase (AcroBiosystems BEB-H52H3) was reconstituted in deionized water to a concentration of 1 mg ml^−1. The enzyme stock solution was further diluted in assay buffer (0.2 M acetate pH 4.5) to 10 μg ml^−1 (134 nM). β-GlcA-N1 (50 mM DMSO stock) was twofold serially diluted in assay buffer from 5 to 0.078 mM. The enzyme solution and diluted β-GlcA-N1 were incubated in a transparent 96-well plate and incubated at 37 °C until thermo equilibrium was reached. Then, 100 µl of β-GlcA-N1 at various concentrations was mixed with 100 µl of β-glucuronidase using a multichannel pipette, resulting in the following initial condition: [β-GlcA-N1] = 2.5, 1.25, 0.62, 0.31, 0.16, 0.08 and 0.04 mM; [β-glucuronidase] = 67 nM; 5% DMSO (v/v). The reactions were incubated at 37 °C. At 30-min and 60-min timepoints, a 50-µl portion was withdrawn from each reaction mixture and mixed with 50 µl of quenching buffer (1 M sodium carbonate, 1 mM TCEP). The concentration of liberated N1 was determined by comparing the absorbance of each quenched reaction at 410 nm to a calibration curve of purified N1. Reaction velocities were calculated from the slopes of [N1] versus time plots. The velocity versus [β-GlcA-N1] plot was then fitted with the standard Michaelis–Menten kinetic model (GraphPad Prism).

A further series relates to MC38 tumours. The note with it: for Tumor Size: individual mice, * = excluded once a death was recorded in the group.
For series [4], the system named is CT26mβGUS tumours. Kind of series: CT26mβGUS syngeneic mouse tumour model. The settings on record: single component alone.

Where “and” joins values, the source holds several entries; their conditions need not be identical. Identical values can stand only once. Like-named read-outs stand apart in the source and are kept apart here. Some results are limits rather than exact numbers.

E. coli β-glucuronidase, sequence (P05804 whole entry): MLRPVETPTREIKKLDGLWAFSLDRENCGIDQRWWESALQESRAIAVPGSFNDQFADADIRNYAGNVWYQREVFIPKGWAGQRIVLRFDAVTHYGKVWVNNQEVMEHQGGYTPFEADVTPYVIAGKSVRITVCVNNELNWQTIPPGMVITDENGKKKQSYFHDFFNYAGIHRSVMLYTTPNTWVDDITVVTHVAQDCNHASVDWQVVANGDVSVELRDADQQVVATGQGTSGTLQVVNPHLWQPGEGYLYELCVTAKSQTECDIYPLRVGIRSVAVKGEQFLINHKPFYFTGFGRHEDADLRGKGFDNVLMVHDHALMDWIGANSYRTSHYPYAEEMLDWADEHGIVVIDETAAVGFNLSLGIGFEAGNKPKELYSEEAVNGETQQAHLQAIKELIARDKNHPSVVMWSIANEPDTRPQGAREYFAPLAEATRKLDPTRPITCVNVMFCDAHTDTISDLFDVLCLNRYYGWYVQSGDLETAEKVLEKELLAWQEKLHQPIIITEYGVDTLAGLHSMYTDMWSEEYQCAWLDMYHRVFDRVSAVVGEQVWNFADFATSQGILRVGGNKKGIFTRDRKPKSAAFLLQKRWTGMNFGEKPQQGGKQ

On to `COc1cc2sc(C(=O)CCC(=O)O)cc2cc1SCCCl` [Compound E4], for which the glutathione adduct formation result in series [1] is “No glutathione–E4 adduct was detected”. At E. coli β-glucuronidase, the “stability in phosphate buffer without added enzyme” value was “most E4 underwent hydrolysis”. For the same compound, the body weight entry in the series on CT26mβGUS tumours [2] is recorded as “no significant losses were observed”. For the same compound, the “concentration up to which no STING activation was shown (alone)” value in the series with THP-1 cells is over 64 µM.

With `COc1cc2sc(C(=O)CCC(=O)O)cc2cc1SCO[C@@H]1O[C@H](C(=O)O)[C@@H](O)[C@H](O)[C@H]1O` [β-GlcA-N1], the “fraction remaining intact in human plasma” value in series [3] was “more than 90%”. Besides, on human β-glucuronidase (Vmax / enzyme (6.71141e-8 M)), the kcat came to 0.4762. Also, the “dilution-corrected deltaN1” value at human β-glucuronidase (substrate conc. 0.0390625 mM) was 4.272e-06 mM/s and 3.586e-06 mM/s; on human β-glucuronidase (substrate conc. 0.078125 mM) it was 6.962e-06 mM/s and 7.225e-06 mM/s; on human β-glucuronidase (substrate conc. 0.15625 mM), 1.1761e-05 mM/s and 1.16e-05 mM/s; on human β-glucuronidase (substrate conc. 0.3125 mM) it was 1.598e-05 mM/s and 1.529e-05 mM/s; on human β-glucuronidase (substrate conc. 0.625 mM) it was 2.231e-05 mM/s and 1.587e-05 mM/s; on human β-glucuronidase (substrate conc. 1.25 mM) it was 2.547e-05 mM/s and 2.51e-05 mM/s. The “dilution-corrected deltaN1” value on human β-glucuronidase (substrate conc. 2.5 mM) was 3.022e-05 mM/s and 2.88e-05 mM/s. On E. coli β-glucuronidase, the “stability in phosphate buffer without added enzyme” value is reported as “remained stable”. The “Tumor Size” value is 113* mm^3 and 189.9* mm^3 with MC38 tumours (day 23); 125.8124* mm^3 and 301.5* mm^3 with MC38 tumours (day 25); 445.0408* mm^3 and 632.5* mm^3 in the series on MC38 tumours (day 30); 1167* mm^3 and 1562* mm^3 in the series on MC38 tumours (day 33). The “Survival: Days” value in the series on MC38 tumours (mouse, in vivo) was 17 days and 33 days and 21 days. Moreover, the “Survival: death event (1 denotes a death event)” value in the series on MC38 tumours (mouse, in vivo) is 1. Moreover, in the series with CT26mβGUS tumours [4], the body weight result is “no significant losses were observed”.

The values above are taken from paper PMC12669040, “Tumour-specific STING agonist synthesis via a two-component prodrug system” (Nature Chemistry, 2025).
